PMC5441580, “GPR40 partial agonist MK-2305 lower fasting glucose in the Goto Kakizaki rat via suppression of endogenous glucose production” (PLoS ONE, 2017)
Several values for one entry are separate records, joined by “and”; a condition that tells them apart may be missing. Equal entries are not always repeated.

Key:
[1] = tested on: pancreatic islets of Langerhans from GPR40−/− mice; experiment: glucose stimulated insulin secretion (GSIS), isolated GPR40 KO islets; assay type: cell-based, mouse; details: 10 uM compound, 60 min, individual wells
Procedure: Pancreatic islets of Langerhans were isolated from wild-type and GPR40−/− mice (littermates) by collagenase digestion and discontinuous Ficoll gradient separation. […] Insulin secretion was determined by a 1 hr static incubation in Krebs-Ringer bicarbonate (KRB) buffer in a 96-well format as previously described. Briefly, islets were first preincubated in KRB medium with 2 mmol/l glucose for 30 min and were then transferred to a 96-well plate (three islets/well) and incubated with 200 μl of the KRB medium with 2 or 15 mmol/l glucose in the presence or absence of testing compounds for 60 min. The buffer was removed from the wells at the end of the incubation and assayed for insulin levels using the Ultrasensitive Rat Insulin ELISA kit (ALPCO, Salem, NH). All insulin secretion data were normalized by total islet numbers (ex: three islets/well), so the unit is secreted insulin (ng/ml) per islet.

[2] = tested on: perfused db/db mouse livers; experiment: isolated perfused liver study, 13C NMR, [2-13C] pyruvate
Procedure: To evaluate whether GPR40 partial agonist treatment produced a direct effect on hepatic glucose production, we performed isolated perfused liver studies with ^13C NMR spectroscopy in which GPR40 agonists were dosed directly to the liver ex vivo. Mouse livers were chosen instead of rat livers due to size restrictions of the perfused liver apparatus. […] A detailed description of the perfused liver technique can be found elsewhere. Briefly, db/db mice were anesthetized (Nembutal IP, 100 mg/kg), the portal vein was cannulated and tied off, and the liver was excised and perfused with a pre-oxygenated Krebs-bicarbonate buffered solution. The liver was then placed into a 20 mm NMR tube and the gluconeogenic substrate [2-^13C] pyruvate (10 mM) was added to the perfusate plus either MK-2305 (10 μM) or vehicle (0.1% DMSO). […] These NMR signals were then converted to absolute units (μmoles) by comparison to ^13C NMR spectra of standard solutions acquired under identical conditions. Additional correction factors were included for ^13C-glycogen and ^13C-glucose to account for the fact that position 2 in pyruvate can end up at position 1, 2, 5, or 6 in glucose/glycogen due to the fumarase and triose phosphate isomerase reactions. The slope of each signal versus time was then used to calculate the following fluxes: glucose production, glycogen synthesis, and lactate production.

[3] = target: T1, rat GPR120 (FFAR4) (Rattus norvegicus, UniProt Q2AC31); experiment: IP1 functional assay, HEK293 cells stably expressing rat GPR120; assay type: cell-based; details: individual experiments (raw data of Table 1)
T1 construct: expressed in transfected cells
T1 sequence (Q2AC31 1-361): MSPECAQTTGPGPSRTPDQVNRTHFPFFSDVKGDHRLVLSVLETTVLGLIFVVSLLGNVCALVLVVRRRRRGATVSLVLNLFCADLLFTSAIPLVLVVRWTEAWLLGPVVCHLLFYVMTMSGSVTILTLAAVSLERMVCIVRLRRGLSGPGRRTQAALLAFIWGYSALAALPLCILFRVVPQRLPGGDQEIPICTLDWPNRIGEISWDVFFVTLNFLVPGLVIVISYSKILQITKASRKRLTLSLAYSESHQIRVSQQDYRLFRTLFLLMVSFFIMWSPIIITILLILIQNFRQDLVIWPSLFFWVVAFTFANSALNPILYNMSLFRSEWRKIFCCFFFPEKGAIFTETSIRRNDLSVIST
Procedure: CHO Jump-IN cells stably expressing rat GPR40 or HEK293 Jump-IN cells stably expressing rat GPR120 were cultured in DMEM media supplemented with 10% dialyzed FBS, non-essential amino acids, penicillin/streptomycin, 10 μg/ml Blasticidin S HCL and 200 or 100 μg/ml Hygromycin B, respectively (Life Technologies). Cell stocks were maintained and grown in a sub-confluent state using standard cell culture procedures. The day before the experiment, the cells were harvested with non-enzymatic cell dissociation buffer and re-suspended in DMEM supplemented as described above at 0.15 million cells per ml. […] The seeded plates were incubated overnight at 37°C in a humidified environment.
On the day of the experiment, the growth media was removed from the assay plate by centrifugation using a BlueCatBio BlueWasher, protocol #21 “Light Dry” and 10 μl of IP1 stimulation buffer (prepared according to the Cisbio IP-one Tb HTRF kit) is added to each well. Test compounds were dissolved and serially diluted in DMSO as 200X the final assay concentration and 50 nl of the compound dilution was acoustically added to each well of the assay plates. The plates were then incubated for 60 minutes at room temperature and 10 μl of detection buffer (prepared according to the IP-one Tb HTRF kit) is added to each well of the assay plate. […] Maximal % activation and EC50 are then determined for each test compound.

[4] = perfused db/db mouse livers, 10 mg/kg, title: 10 M, individual livers

O=C1NC(=O)C(C2CCOc3cc(Oc4ccc(C(F)(F)F)cc4Cl)ccc32)S1 (centres unmarked) [MK-2305]
secreted insulin per islet ([1]; 2mM glucose): 0.3958 ng/ml per islet and 0.3056 ng/ml per islet and 0.5799 ng/ml per islet and 0.6404 ng/ml per islet and 0.5029 ng/ml per islet and 1.032 ng/ml per islet and 0.612 ng/ml per islet and 0.7615 ng/ml per islet | secreted insulin per islet ([1]; 15 mM Glucose): 2.615 ng/ml per islet and 3.66 ng/ml per islet and 2.83 ng/ml per islet and 4.29 ng/ml per islet and 3.64 ng/ml per islet and 2.75 ng/ml per islet and 4.57 ng/ml per islet and 4.28 ng/ml per islet | effect on conversion of [2-13C] pyruvate to 13C-glucose, 13C-glycogen, or 13C-lactate ([2]; 10 μM, perfused db/db mouse liver): no effects | Flux, conversion of [2-13C] pyruvate to 13C-glycogen [2, 4]: 0.1121 umoles pyr /g liver*min and 0.1693 umoles pyr /g liver*min and 0.0485 umoles pyr /g liver*min and 0.07554 umoles pyr /g liver*min | Flux, conversion of [2-13C] pyruvate to 13C-lactate [2, 4]: 1.604 umoles pyr /g liver*min and 1.499 umoles pyr /g liver*min and 1.317 umoles pyr /g liver*min and 0.5832 umoles pyr /g liver*min | Flux, conversion of [2-13C] pyruvate to 13C-glucose ([2]; perfused db/db mouse livers, MK-2305 10 μM in perfusate, individual livers): 0.9558 umoles pyr /g liver*min and 1.314 umoles pyr /g liver*min and 1.287 umoles pyr /g liver*min and 0.8408 umoles pyr /g liver*min | % Activation [3]: -22% and -18% and -16% and 8% | EC50 [3]: > 10 µM
